{"source": "patent US4721775A", "about": "“Effective peptides related to the luteinizing hormone releasing hormone from L-amino acids” (Board of Regents, The University of Texas System, priority 1985, dated 1988)", "key": {"[1]": {"system": "release of FSH", "assay": "Release of FSH in rats after sc injection", "assay_type": "in vivo", "conditions": "release 60 min. after sc injection", "excerpt": "(§1) The data on the release of LH and FSH in rats by modifications of LHRH with one structural change are in Table II.\n(§2) Exclusive of the salmon-LHRH, only one of the six decapeptides with two structural changes had significant activity."}, "[2]": {"conditions": "relative to LHRH; cited from earlier work"}, "[3]": {"system": "release of LH", "assay": "Release of LH in rats after sc injection", "assay_type": "in vivo", "conditions": "for LH: release 60 min. after sc injection", "excerpt": "as §1, §2"}, "[4]": {"system": "release of FSH", "assay": "Release of FSH in rats after sc injection", "assay_type": "in vivo", "conditions": "dose and time as stated in the source"}, "[5]": {"conditions": "relative to LHRH; cited from earlier work", "remark": "listed apart in the source"}, "[6]": {"system": "ovulation", "conditions": "250 ng; rats; cited from earlier work"}}, "note": "Several values for one entry are separate records, joined by “and”; a condition that tells them apart may be missing. Identical values can stand only once. Entries after “also recorded” stand apart in the source; their conditions may differ.", "data": [{"compound": "N=C(N)NCCC[C@H](NC(=O)[C@H](Cc1c[nH]c2ccccc12)NC(=O)CNC(=O)[C@H](Cc1ccc(O)cc1)NC(=O)[C@H](CO)NC(=O)[C@H](Cc1c[nH]c2ccccc12)NC(=O)[C@H](Cc1c[nH]cn1)NC(=O)[C@@H]1CCC(=O)N1)C(=O)N1CCC[C@H]1C(=O)NCC(N)=O", "note": "[[Trp^7]--LHRH, p-Glu His Trp Ser Tyr Gly Trp Arg Pro Gly-NH2]", "values": [{"measurement": "FSH", "setting": "[1]; dosage of peptide 300 ng", "result": 543, "unit": "ng/mL"}, {"measurement": "FSH", "setting": "[1]; dosage of peptide 3000 ng", "result": 1259, "unit": "ng/mL"}, {"measurement": "agonist activity in vivo", "setting": "[2]", "result": 80, "unit": "%"}, {"measurement": "LH", "setting": "[3]; dosage of peptide 300 ng", "result": 14.5, "unit": "ng/mL"}, {"measurement": "LH", "setting": "[3]; dosage of peptide 3000 ng", "result": "115 ± 19 ng/mL and 115 ng/mL"}, {"measurement": "release of LH compared with LHRH", "setting": "[3]; sc injection, dose and time as stated in the source", "result": "as active as LHRH at two dose levels; also recorded: equivalent to LHRH in the release of both LH and FSH"}, {"measurement": "release of FSH compared with LHRH", "setting": "[4]", "result": "as active as LHRH; also recorded: equivalent to LHRH in the release of both LH and FSH"}]}, {"compound": "[3(2-Nal)^3 ]-LHRH", "values": [{"measurement": "agonist activity in vitro, as active as LHRH", "setting": "[5]", "result": 200, "unit": "%"}]}, {"compound": "[Ala^9 ]-LHRH (QHWSYGLRAG; Gonadoliberin-1; UniProt P01148 24-33, looked up, variant P9A) [literature agonist analog of LHRH]", "values": [{"measurement": "agonist activity in vitro, as active as LHRH", "setting": "[5]", "result": 65, "unit": "%"}]}, {"compound": "[N-Ac-D-2-Nal^1, D-pClPhe^2, D-3-Pal^3, D-Arg^6, Trp^7, D-Ala10 ]-LHRH", "values": [{"measurement": "antiovulatory activity", "setting": "[6]", "result": "ca. 90%"}]}, {"compound": "[N-MeLeu^7 ]-LHRH", "values": [{"measurement": "agonist activity in vitro, as active as LHRH", "setting": "[5]", "result": 100, "unit": "%"}]}, {"compound": "[Phe^5 ]-LHRH (QHWSFGLRPG; Gonadoliberin-1; UniProt P01148 24-33, looked up, variant Y5F) [literature agonist analog of LHRH, reference compound]", "values": [{"measurement": "agonist activity in vivo", "setting": "[2]", "result": 64, "unit": "%"}]}]}
